From patent US4801613A, “Bradykinin antagonist peptides” (Nova Technology Limited Partnership, priority 1987, dated 1989) come the findings set out here.

Assay type in all cases: cell-based
The subject of one test is isolated rat uterus. The protocol:
(§1) The bradykinin antagonists were assayed on isolated rat uterus in natural or induced estrus and on guinea pig ileum, according to the commonly accepted assay methods for bradykinin and related kinins as described by Trautschold (Handbook of Expt. Pharmacol. Vol. 25, Springer Verlag, pp 53-55, 1970) for inhibition of the myotropic activity of bradykinin. The inhibition potencies, as determined according to the commonly accepted manner described by Schild for antagonists of biologically active compounds (Br. J. Pharmacol. 2:189, 1947), are determined on isolated rat uterus (RUT) and isolated guinea pig ileum (GPI). In the assays, a dose-response curve is determined for the reference substance bradykinin. The dose of bradykinin which produced a half maximal contraction of tissue is the ED50 dose. An amount of bradykinin equivalent to twice the ED50 dose is administered to the tissue 30 seconds after the start of incubation of the tissue with a dose of antagonist. Doses of antagonist are increased in this protocol until pre-incubation with a dose of antagonist reduces the contraction in response to the double ED50 dose of bradykinin to response of a single ED50 dose of bradykinin. The pA2 value represents the negative logarithm of the molar concentration of antagonist necessary to reduce the response of a double ED50 dose of bradykinin to that of an ED50 dose. One unit of pA2 value represents an order of magnitude change in potency. For comparison, the negative log of the dose of BK, the dose which causes half maximal contraction of the tissues, is commonly known as the pD2 value. The pD2 value for bradykinin is 7.9 on the rat uterus and 7.4 on the guinea pig ileum.

In test [1] the test system is isolated guinea pig ileum. On the procedure:
as §1
(§2) In each case, as shown, the BK-related antagonists inhibited contractions produced by BK-related agonists, but had no effect on the non-kinin myotropic peptide substances. The inhibition potencies are listed as pA2 values as described above.

The subject of the next test is guinea pig ileum. On the procedure: as §1, §2
[2] abbreviates: isolated rat uterus, vs double ED50 dose of bradykinin, Schild.
[3] abbreviates: isolated guinea pig ileum, vs double ED50 dose of bradykinin, Schild.

Like-named read-outs stand apart in the source and are kept apart here. Non-standard residues stand in square brackets, D forms with d. Residues, ends and D or L forms follow the SMILES beside them. No end group written: not given here. Hyp = O=C(O)[C@@H]1C[C@@H](O)CN1; 2Thi = N[C@@H](Cc1cccs1)C(=O)O; d2Thi = N[C@H](Cc1cccs1)C(=O)O

In the case of `N=C(N)NCCC[C@@H](N)C(=O)N[C@@H](CCCNC(=N)N)C(=O)N1C[C@H](O)C[C@H]1C(=O)N1C[C@H](O)C[C@H]1C(=O)NCC(=O)N[C@@H](Cc1cccs1)C(=O)N[C@@H](CO)C(=O)N[C@H](Cc1ccccc1)C(=O)N[C@@H](Cc1cccs1)C(=O)N[C@@H](CCCNC(=N)N)C(=O)O` [Example 65, DArg-Arg-Hyp-Hyp-Gly-Thi-Ser-DPhe-Thi-Arg] (H-[dR]R[Hyp][Hyp]G[2Thi]S[dF][2Thi]R-OH), in the test with isolated rat uterus, the pA2/RUT amounted to 7.1.

For the compound `N=C(N)NCCC[C@H](NC(=O)[C@H](Cc1ccccc1)NC(=O)[C@@H](Cc1ccccc1)NC(=O)[C@H](CO)NC(=O)[C@H](Cc1ccccc1)NC(=O)CNC(=O)[C@@H]1CCCN1C(=O)[C@@H]1CCCN1C(=O)[C@H](CCCNC(=N)N)NC(=O)[C@H](CCCCN)NC(=O)[C@@H](N)CCCCN)C(=O)O` [Example 13, Lys-Lys-Arg-Pro-Pro-Gly-Phe-Ser-DPhe-Phe-Arg] (H-KKRPPGFS[dF]FR-OH), in test [1], the pA2/GPI is listed as 5.1.

Turning to `N=C(N)NCCC[C@H](NC(=O)[C@H](Cc1cccs1)NC(=O)[C@@H](Cc1cccs1)NC(=O)[C@H](CO)NC(=O)[C@H](Cc1cccs1)NC(=O)CNC(=O)[C@@H]1CCCN1C(=O)[C@@H]1CCCN1C(=O)[C@@H](N)CCCNC(=N)N)C(=O)O` [Example 7, Arg-Pro-Pro-Gly-Thi-Ser-DThi-Thi-Arg] (H-RPPG[2Thi]S[d2Thi][2Thi]R-OH), the pA2/RUT in the test on isolated rat uterus was 4.2. In addition, in test [1], the pA2/GPI is on record as 5.8. For the compound `N=C(N)NCCC[C@H](NC(=O)[C@H](Cc1cccs1)NC(=O)[C@@H](Cc1ccccc1)NC(=O)[C@H](CO)NC(=O)[C@H](Cc1cccs1)NC(=O)CNC(=O)[C@@H]1C[C@@H](O)CN1C(=O)[C@@H]1CCCN1C(=O)[C@H](CCCNC(=N)N)NC(=O)[C@H](CCCCN)NC(=O)[C@@H](N)CCCCN)C(=O)O` [Example 77, Lys-Lys-Arg-Pro-Hyp-Gly-Thi-Ser-DPhe-Thi-Arg] (H-KKRP[Hyp]G[2Thi]S[dF][2Thi]R-OH), in the test on isolated rat uterus, the pA2/RUT was 6.7. In test [1], `N=C(N)NCCC[C@H](NC(=O)[C@H](Cc1ccccc1)NC(=O)[C@@H](Cc1ccccc1)NC(=O)[C@@H](Cc1ccccc1)NC(=O)[C@H](Cc1ccccc1)NC(=O)CNC(=O)[C@@H]1CCCN1C(=O)[C@@H]1CCCN1C(=O)[C@@H](N)CCCNC(=N)N)C(=O)O` [Example 4, Arg-Pro-Pro-Gly-Phe-DPhe-DPhe-Phe-Arg] (H-RPPGF[dF][dF]FR-OH) yielded a pA2/GPI of 5.2. In the test on isolated rat uterus, `N=C(N)NCCC[C@H](NC(=O)[C@H](Cc1cccs1)NC(=O)[C@@H](Cc1ccccc1)NC(=O)[C@H](CO)NC(=O)[C@H](Cc1cccs1)NC(=O)CNC(=O)[C@@H]1CCCN1C(=O)[C@@H]1CCCN1C(=O)[C@H](CCCNC(=N)N)NC(=O)[C@H](CCCCN)NC(=O)[C@@H](N)CCCCN)C(=O)O` [Example 14, Lys-Lys-Arg-Pro-Pro-Gly-Thi-Ser-DPhe-Thi-Arg] (H-KKRPPG[2Thi]S[dF][2Thi]R-OH) gave a pA2/RUT of 6.0. This compound registered a pA2/GPI in test [1] of 5.3. With `N=C(N)NCCC[C@@H](N)C(=O)N[C@@H](CCCNC(=N)N)C(=O)N1CCC[C@H]1C(=O)N1C[C@H](O)C[C@H]1C(=O)NCC(=O)N[C@@H](Cc1cccs1)C(=O)N[C@@H](CO)C(=O)N[C@H](Cc1ccccc1)C(=O)N[C@@H](Cc1cccs1)C(=O)N[C@@H](CCCNC(=N)N)C(=O)O` [Example 21, DArg-Arg-Pro-Hyp-Gly-Thi-Ser-DPhe-Thi-Arg] (H-[dR]RP[Hyp]G[2Thi]S[dF][2Thi]R-OH), in the test with isolated rat uterus, the pA2/RUT is on record as 7.2. The compound “Arg-Hyp-Hyp-Gly-Thi-DPhe-CDF-Thi-Arg [Example 23]” registered a pA2/RUT with isolated rat uterus (setting [2]) of 6.5.

For the compound “Arg-Pro-Pro-Gly-Thi-Ser-DPal-Thi-Arg [Example 8]”, the pA2/RUT in the test with isolated rat uterus (setting [2]) came to 4.2. As for `N=C(N)NCCC[C@@H](N)C(=O)N[C@@H](CCCNC(=N)N)C(=O)N1CCC[C@H]1C(=O)N1CCC[C@H]1C(=O)NCC(=O)N[C@@H](Cc1cccs1)C(=O)N[C@@H](CO)C(=O)N[C@H](Cc1ccccc1)C(=O)N[C@@H](Cc1cccs1)C(=O)N[C@@H](CCCNC(=N)N)C(=O)O` [Example 15, DArg-Arg-Pro-Pro-Gly-Thi-Ser-DPhe-Thi-Arg] (H-[dR]RPPG[2Thi]S[dF][2Thi]R-OH), in the test on isolated rat uterus, the “RUT pA2” value was determined as 5.2 and the pA2/RUT was 5.5. Besides, the “GUINEA PIG ILEUM BK (pA2)” value in test [1] is 6.1. For the same compound, in the test on guinea pig ileum, the “GUINEA PIG ILEUM KAL (pA2)” value came to 6.7 and the “GUINEA PIG ILEUM MK--BK (pA2)” value stood at 6.4. Compound “KKR[Hyp]G[2Thi]S[dF][2Thi]R [Example 19]” showed a pA2/RUT with isolated rat uterus (setting [2]) of 5.8.

In test [1], `N=C(N)NCCC[C@H](NC(=O)[C@H](Cc1ccccc1)NC(=O)[C@@H](Cc1cccs1)NC(=O)[C@H](CO)NC(=O)[C@H](Cc1ccccc1)NC(=O)CNC(=O)[C@@H]1CCCN1C(=O)[C@@H]1CCCN1C(=O)[C@@H](N)CCCNC(=N)N)C(=O)O` [Example 2, Arg-Pro-Pro-Gly-Phe-Ser-DThi-Phe-Arg] (H-RPPGFS[d2Thi]FR-OH) displayed a pA2/GPI of 4.6. For the compound `N=C(N)NCCC[C@@H](N)C(=O)N[C@@H](CCCNC(=N)N)C(=O)N1CCC[C@H]1C(=O)N1CCC[C@@H]1C(=O)NCC(=O)N[C@@H](Cc1ccccc1)C(=O)N[C@@H](CO)C(=O)N[C@H](Cc1ccccc1)C(=O)N[C@@H](Cc1ccccc1)C(=O)N[C@@H](CCCNC(=N)N)C(=O)O` [Example 11, DArg-Arg-Pro-DPro-Gly-Phe-Ser-DPhe-Phe-Arg], in the test with isolated rat uterus, the “RUT pA2” value was found to be 4.6 and the pA2/RUT is on record as 4.0. Take “Arg-Pro-Pro-Gly-Phe-DPhe-CDF-Phe-Arg [Example 5]”: the pA2/RUT in the test with isolated rat uterus (setting [2]) was determined as 4.9. Besides, the pA2/GPI in test [1] (setting [3]) is given as 5.8. In the same order, the values of “Arg-Pro-Pro-Gly-Phe-Ser-DPal-Phe-Arg [Example 3]” are 5.0 and 4.8.

In turn, `N=C(N)NCCC[C@@H](N)C(=O)N[C@@H](CCCNC(=N)N)C(=O)N1C[C@H](O)C[C@H]1C(=O)N1CCC[C@H]1C(=O)NCC(=O)N[C@@H](Cc1cccs1)C(=O)N[C@@H](CO)C(=O)N[C@H](Cc1ccccc1)C(=O)N[C@@H](Cc1cccs1)C(=O)N[C@@H](CCCNC(=N)N)C(=O)O` [Example 64, DArg-Arg-Hyp-Pro-Gly-Thi-Ser-DPhe-Thi-Arg] (H-[dR]R[Hyp]PG[2Thi]S[dF][2Thi]R-OH) gave a pA2/RUT in the test with isolated rat uterus of 5.7. As to `N=C(N)NCCC[C@@H](N)C(=O)N[C@@H](CCCNC(=N)N)C(=O)N1CCC[C@H]1C(=O)N1CCC[C@@H]1C(=O)NCC(=O)N[C@@H](Cc1cccs1)C(=O)N[C@@H](CO)C(=O)N[C@H](Cc1ccccc1)C(=O)N[C@@H](Cc1cccs1)C(=O)N[C@@H](CCCNC(=N)N)C(=O)O` [Example 16, DArg-Arg-Pro-DPro-Gly-Thi-Ser-DPhe-Thi-Arg] (H-[dR]RP[dP]G[2Thi]S[dF][2Thi]R-OH), in the test on isolated rat uterus, the pA2/RUT amounted to 5.2.

In the test with isolated rat uterus, `N=C(N)NCCC[C@H](NC(=O)[C@H](Cc1cccs1)NC(=O)[C@@H](Cc1ccccc1)NC(=O)[C@H](CO)NC(=O)[C@H](Cc1cccs1)NC(=O)CNC(=O)[C@@H]1C[C@@H](O)CN1C(=O)[C@@H]1C[C@@H](O)CN1C(=O)[C@@H](N)CCCNC(=N)N)C(=O)O` [Example 22, Arg-Hyp-Hyp-Gly-Thi-Ser-DPhe-Thi-Arg] (H-R[Hyp][Hyp]G[2Thi]S[dF][2Thi]R-OH) returned a pA2/RUT of 6.7.

On to `N=C(N)NCCC[C@H](NC(=O)[C@H](Cc1ccccc1)NC(=O)[C@@H](Cc1ccccc1)NC(=O)[C@H](CO)NC(=O)[C@H](Cc1ccccc1)NC(=O)CNC(=O)[C@@H]1CCCN1C(=O)[C@@H]1CCCN1C(=O)[C@@H](N)CCCNC(=N)N)C(=O)O` [Example 1, Arg-Pro-Pro-Gly-Phe-Ser-DPhe-Phe-Arg] (H-RPPGFS[dF]FR-OH), for which the “RUT AG = agonist potency relative to BK = 100” value with isolated rat uterus amounted to 1%. Further, the “GUINEA PIG ILEUM BK (pA2)” value in test [1] is given as 5.0. Also, in the test on guinea pig ileum, the “GUINEA PIG ILEUM KAL (pA2)” value is listed as 5.6 and the “GUINEA PIG ILEUM MK--BK (pA2)” value is recorded as 6.0. For the compound `N=C(N)NCCC[C@H](NC(=O)[C@H](Cc1ccccc1)NC(=O)[C@@H](Cc1ccccc1)NC(=O)[C@H](CO)NC(=O)[C@H](Cc1ccccc1)NC(=O)CNC(=O)[C@@H]1CCCN1C(=O)[C@@H]1C[C@@H](O)CN1C(=O)[C@H](CCCNC(=N)N)NC(=O)[C@H](CCCCN)NC(=O)[C@@H](N)CCCCN)C(=O)O` [Example 72, Lys-Lys-Arg-Hyp-Pro-Gly-Phe-Ser-DPhe-Phe-Arg] (H-KKR[Hyp]PGFS[dF]FR-OH), the pA2/RUT in the test with isolated rat uterus amounted to 5.6. In the test with isolated rat uterus, `N=C(N)NCCC[C@H](NC(=O)[C@H](Cc1cccs1)NC(=O)[C@@H](Cc1ccccc1)NC(=O)[C@H](CO)NC(=O)[C@H](Cc1cccs1)NC(=O)CNC(=O)[C@@H]1CCCN1C(=O)[C@@H]1C[C@@H](O)CN1C(=O)[C@@H](N)CCCNC(=N)N)C(=O)O` [Example 18, Arg-Hyp-Pro-Gly-Thi-Ser-DPhe-Thi-Arg] (H-R[Hyp]PG[2Thi]S[dF][2Thi]R-OH) yielded a pA2/RUT of 5.6.

`N=C(N)NCCC[C@H](NC(=O)[C@H](Cc1cccs1)NC(=O)[C@@H](Cc1ccccc1)NC(=O)[C@H](CO)NC(=O)[C@H](Cc1cccs1)NC(=O)CNC(=O)[C@@H]1C[C@@H](O)CN1C(=O)[C@@H]1CCCN1C(=O)[C@@H](N)CCCNC(=N)N)C(=O)O` [Example 20, Arg-Pro-Hyp-Gly-Thi-Ser-DPhe-Thi-Arg] (H-RP[Hyp]G[2Thi]S[dF][2Thi]R-OH) registered a pA2/RUT in the test on isolated rat uterus of 7.0. For the same compound, the pA2/GPI in test [1] is given as 4.7.
